In assay [1] the test system is promoter regions of Ascl1, Brn2, Myt1l and TUBB3. Put plainly: ChIP-qPCR of histone modifications at neuronal gene promoters. The assay is classed as cell-based, mouse. Particulars: BAM-transduced fibroblasts, day 3, relative to DMSO. Here is the method: Halt™ Protease and Phosphatase Inhibitor Cocktail (ThermoFisher Scientific, 78442) was added to Cell Lysis (10 mM Tris-HCl pH 8.0, 85 mM KCl, 0.5% NP-40), Nuclei Lysis (10 mM Tris-HCl pH 7.5, 1% NP-40, 0.5% sodium deoxycholate, 0.1% SDS), and ChIP Dilution (0.01% SDS, 1.1% Triton X-100, 1.2 mM EDTA, 16.7 mM Tris-HCL pH 8.1, 167 mM NaCl) Buffers.
Three days post-Dox addition, 4×10^6 BAM-transduced fibroblasts cultured in the absence and presence of 10 μM blebbistatin and 5 μM PF573228, respectively, for 2 days were fixed using 1% formaldehyde in PBS (Fisher Scientific, BP531) for 10 minutes. 125 mM Glycine was added for 5 minutes to quench excess formaldehyde, followed by 2 washes with cold 1×PBS. Cells were scraped and collected into microcentrifuge tubes and centrifuged at 800 g at 4° C. for 5 minutes. Upon removing the supernatant, cell pellets were snap-frozen in liquid nitrogen and stored at −80° C. The cells were then resuspended and lysed in Cell Lysis Buffer and resuspended in Nuclei Lysis Buffer prior to sonication using a Branson SFX250 Sonifier at 40% amplitude, 0.7 seconds on and 1.3 seconds off, for a total of 8 minutes. […]
50 μL ChIP Elution Buffer was added to the stored internal controls from the post-sonication step. […] ChIP-qPCR data were analyzed by normalizing the DNA concentration to percent input using the relative standard curve method.

Another assay concerns iN cells. Put plainly: Patch-clamp electrophysiology of iN cells. The assay is classed as cell-based, mouse. The note with it: for functionality of derived iN cells: electrophysiological analysis. Here is the method: For functional assessment of the iN cells, patch-clamp electrophysiology analysis was performed. All experiments were conducted at room temperature (22° C.-24° C.). All reagents were purchased from Sigma-Aldrich unless otherwise specified. Whole-cell recording was made from neurons using a patch clamp amplifier (MultiClamp 700B, Axon Instr.) under infrared differential interference contrast optics. Microelectrodes were made from borosilicate glass capillaries, with a resistance of 4-5 MW. For recording action potentials, cells were held at −70 mV in a […]. The intracellular solution for whole-cell recording of EPSPs and action potentials contained (in mM) 140 potassium gluconate, 5 KCl, 10 HEPES, 0.2 EGTA, 2 MgCl2, 4 MgATP, 0.3 Na2GTP and 10 Na2-phosphocreatine, pH 7.2 (adjusted with KOH).
For recording spontaneous EPSCs (sEPSCs), cells were pre-treated with the extracellular bath solution containing 50 μM picrotoxin (Tocris) to exclude an inhibitory synaptic activity and held at −70 mV in a voltage-clamp mode with the intracellular solution containing (in mM) 130 CsMeSO4, 7 CsCl, 10 HEPES, 1 EGTA, 4 MgATP, 0.3 Na2GTP, and 10 Na2-phosphocreatine, pH 7.3 (adjusted with CsOH). After recording basal sEPSC responses for 5 min, 10 μM CNQX (Tocris) and 100 μM D,L-APV (Tocris) were co-treated to test whether sEPSCs were mediated by activation of both AMPA- and NMDA-type of glutamate receptors. For measuring spontaneous IPSC (sIPSCs), cells were pre-treated with the bath solution containing 10 μM CNQX and 100 μM D,L-APV and held at −70 mV with the intracellular solution containing (in mM) 137 CsCl, 10 HEPES, 1 EGTA, 4 MgATP, 0.3 Na2GTP, and 10 Na2-phosphocreatine, pH 7.3 (adjusted with CsOH). 50 μM picrotoxin was then treated to test a dependency of sIPSCs on GABA receptors after acquiring basal sIPSC responses for 5 min. Series resistance (10-25 MΩ) and input resistance (˜200 MΩ using potassium-based internal solution; 1-2 G2 using Cs-based internal solution) were monitored throughout the whole-cell recording or compared before and after sEPSC/IPSC recordings.
Off-line analyses of action potential properties (number, amplitude, half-width) and the amplitude and frequency of sEPSC and sIPSC were performed by using a threshold event detection function of the Clampfit software (Molecular Devices). Visualization of analysis results and their statistical tests were performed by using GraphPad Prism® 6.0 software.

[2] abbreviates: absence vs presence of blebbistatin.

For the molecule `Cc1ccc2c(c1)C(=O)C1(O)CCN(c3ccccc3)C1=N2` (stereo not drawn) [blebbistatin], the “histone modifications at promoter regions of Ascl1, Brn2, Myt1l and TUBB3” value in assay [1] was “significant increases in AcH3, H3K4me3 and H3K4me1 at all four promoter regions”. Moreover, in the assay on iN cells (setting [2]), the “frequency of spontaneous EPSCs” value is given as “no significant difference” and the “frequency of spontaneous IPSCs” value is listed as “no significant difference”. Also, in the assay with iN cells (blebbistatin-derived iN cells), the IPSC amplitude result is “significantly lower”. In addition, the “functionality of derived iN cells” value with iN cells is “functional, exhibiting spontaneous changes in membrane potential in response to current injection”. The EPSC amplitude result with iN cells (iN cells derived with blebbistatin) is “significantly higher”. Further, the action potential properties result with iN cells (iN cells generated in absence vs presence of blebbistatin) was “no apparent difference”.
Turning to `CS(=O)(=O)c1cccc(CNc2nc(Nc3ccc4c(c3)CCC(=O)N4)ncc2C(F)(F)F)c1` [PF573228], the “histone modifications at promoter regions of Ascl1, Brn2, Myt1l and TUBB3” value in assay [1] was “significant increases in AcH3, H3K3me3 and H3K4me1 at the promoter regions”. Moreover, in the assay with iN cells, the “functionality of derived iN cells” value is listed as “exhibited functional neuronal properties as assessed by electrophysiological analysis”.

(Values after US20230381774A1, “MICROFLUDIC LAB-ON-CHIP DEVICE, MATRIX, SMALL MOLECULES AND THREE-DIMENSIONAL SPHEROIDS FOR CELL REPROGRAMMING” (The Regents of the University of California, priority 2022, published 2023).)
